From patent US20220265625A1, “COMPOSITIONS AND METHODS USING TRIGONELLINE AND MINERALS FOR PREVENTING OR TREATING CONDITIONS OR DISORDERS IN SKELETAL MUSCLE” (SOCIETE DES PRODUITS NESTLE S.A., priority 2019, published 2022) come the findings set out here.

One assay relates to Human primary myoblasts. Briefly: NAD+ colorimetric quantification in differentiated human primary myoblasts. The conditions noted are these: 16h, different doses. The format is cell-based. As for the experimental part:
After one day, the differentiation is induced by a medium change for 4 days. Cells were treated with synthetic trigonelline monohydrate (FIG. 4A) or with Fenugreek seed extract enriched in trigonelline containing 40.45% trigonelline (FIG. 4B) for 16h at difference doses. NAD+was measured using colorimetric NAD+quantification assay (Biovision NAD+/NADH Quantitation Colorimetric Kit #k337-100).

The next assay has as its system C57BL/6JRj male mice. Briefly: Liver NAD+ after oral gavage in mice. The format is in vivo. The conditions noted are these: equimolar of 300mg/kg trigonelline, 120 minutes. As to the method: 10 weeks C57BL/6JRj male mice received trigonelline (sigma #T5509) or fenugreek seed extract enriched in trigonelline (40.45% trigonelline) by oral gavage (equimolar of 300mg/kg trigonelline, n=8/group). After 120 minutes treatment, the liver was harvested and flash frozen in liquid nitrogen. NAD+was measured in liver using an enzymatic method adapted from Dall, M., et al., Mol Cell Endocrinol, 2018. 473: p. 245-256.

The test system of assay [1] is Human Skeletal Muscle Myotubes (HSMM). As to conditions: 6h. As for the experimental part: Human primary myoblasts from two different donors were seeded in 6 well plates at a density of 200′000 cells per well in skeletal muscle growth medium (SKM-M, AMSbio). After one day, the differentiation was induced by a medium change for 4 days using differentiation culture medium
(Gibco No. 31330-028). Cells were treated with isotopically labelled trigonelline (^13C carbonyl; 3^2H on methyl) for 6h.
Cell extracts were separated on a Vanquish UHPLC +focused LC system (Thermo Scientific) with a hydrophilic liquid chromatography (HILIC) iHILIC-Fusion(P) column (Hilicon) carrying the dimensions 150 x 2.1 mm, 5 pm and a guard column (iHILIC-fusion(P), Hilicon) in front. The separation of metabolites was achieved by applying a linear solvent gradient in normal phase at 0.25 mL/min flow rate and 35° C. of temperature. As mobile phase, solvent A was water with 10 mM ammonium acetate and 0.04% (v/v) ammonium hydroxide, pH ˜9.3, and solvent B was acetonitrile.
The eluting metabolites were analyzed with an Orbitrap Fusion Lumos mass spectrometer (Thermo Scientific) with a heated electrospray ionization (H-ESI) source in positive and negative mode at a resolution of 60,000 at m/z of 200. Instrument control and data analysis were conducted using Xcalibur (Thermo Scientific).

Assay [2] has as its system C. elegans. As to conditions: 1 mM, day 8 and day 11 old worms. The source says:
45 to 60 worms per condition were manually scored for mobility after poking. Worms that were unable to respond to any repeated stimulation were scored as dead. […] Trigonelline treatment and experimental measurements were started at Day 1 of wild type N2 worm adulthood, in a regimen of chronic exposure til experiments termination.

The test system of assay [3] is C. elegans. As to conditions: 1mM, chronic exposure from Day 1 adulthood. As for the experimental part:
Worm lifespan tests were performed using about 100 animals per condition and scored manually every other day. Trigonelline treatment and experimental measurements were started at Day 1 of wild type N2 worm adulthood, in a regimen of chronic exposure till experiments termination.

Assay [4] relates to C. elegans. As to conditions: 1 mM. As to the method: C. elegans mobility test was performed using the Movement Tracker software (Mouchiroud, L. et al. Curr Protoc Neurosci 77, 8.37.1-8.37.21 (2016)). The experiments were repeated at least twice. Trigonelline treatment and experimental measurements were started at Day 1 of wild type N2 worm adulthood, in a regimen of chronic exposure till experiments termination.

The test system of assay [5] is RW1596 (myo-3p::GFP) worms. As to conditions: 1mM trigonelline chloride, 11 day old worms. As to the method:
RW1596 (myo-3p::GFP) worms were collected at Day 1 (young adults) and at Day 11 (aged animals) for muscle integrity assessment. Worms were immobilized with tetramisole and analyzed by confocal microscopy, to assess the muscle fibers morphology shown by GFP fluorescence imaging. Trigonelline treatment with 1mM trigonelline chloride and experimental measurements were started at Day 1 of wild type N2 worm adulthood, in a regimen of chronic exposure till experiments termination.

The subject of assay [6] is C. elegans. As to conditions: 1mM trigonelline chloride, day 8 old worms. As to the method: Absolute quantification of the mtDNA copy number in wild type N2 worms was performed by real-time PCR. Relative values for nduo-1, and act-1 were compared within each sample to generate a ratio representing the relative level of mitochondrial DNA per nuclear genome. The average of at least two technical repeats was used for each biological data point. Each experiment was performed on at least ten independent biological samples (individual worms). Trigonelline treatment with 1mM trigonelline chloride and experimental measurements were started at Day 1 of wild type N2 worm adulthood, in a regimen of chronic exposure till experiments termination.

As to `C[n+]1cccc(C(=O)O)c1.[OH-]` [chemically synthesized trigonelline], the “NAD+ content compared to the control” value in the assay with Human primary myoblasts is on record as “significant increase”. In addition, in the assay with C57BL/6JRj male mice, the “NAD+ content in the liver compared to the control” value was “significant increase”.
Turning to `[2H]C([2H])([2H])[n+]1cccc([13C](=O)[O-])c1` [labelled trigonelline, reference compound], in assay [1] (labelled trigonelline 500pm, vs naturally occurring NAD+ in control), the “relative abundance of labelled NAD+(M+1) (FIG. 2B)” value is “increase”.
Take `C[n+]1cccc(C(=O)O)c1` [trigonelline chloride]: the “stimulated mobility score (worms responsive to a physical stimulus)” value in the assay on C. elegans [2] is recorded as “more responsive to a physical stimulus than the control”. In addition, in the assay with C. elegans [3], the increase in lifespan is on record as 21%. Further, in the assay with C. elegans [4] (advanced aging phase), the “distance travelled during spontaneous mobility assay vs control” value is reported as “significantly increased”. In addition, the “mean speed during spontaneous mobility assay vs control” value in the assay with C. elegans [4] (from day 1 adulthood) was “increased the mean speed”.
`C[n+]1cccc(C(=O)[O-])c1` [trigonelline, 1-methylpyridin-1-ium-3-carboxylate]: the “myofibrillar structure (GFP-tagged myosin) vs age matched control” value in assay [5] was “improved more organized myofibrillar structure”. For the same molecule, the “mitochondrial expression relative to nuclear expression (mt/nDNA, nduo-1/act-1)” value in the assay with C. elegans [6] is given as “higher than in the control group”. Also, the “NAD+ relative concentration vs control (FIG. 2A)” value in assay [1] (HSMM from 2 donors, 500pm, LC-MS) is “enhancement”.
